pIC50: −log10 of the molar value. Values after ≈ are worked out from the molar mass of the structure shown.
Tests used:
[1] = Hygroscopicity experiment (crystal forms of salts and crystal form A of free base); type: physicochemical; settings: for weight gain after moisture absorption / hygroscopicity: RH 80%; for hygroscopicity: result in words; for crystal form transformation (XRPD pattern): after 1 cycle of moisture absorption and desorption, 0-95% relative humidity
Excerpt: • 2.1 Experimental objective: The hygroscopicity of different crystal forms of salts of the compound was investigated under various relative humidity conditions to provide a basis for screening and storage of the crystal forms of salts of the compound. • 2.2 Experimental scheme: The crystal forms of salts of the compound were placed in saturated water vapor at different relative humidities to reach a dynamic equilibrium between the compound and the water vapor.
3.1 Experimental objective: The hygroscopicity of crystal form A of free base of the compound was investigated under various relative humidity conditions to provide a basis for screening and storage of the crystal forms of the compound.
3.2 Experimental scheme: The crystal form A of free base of the compound was placed in saturated water vapor at different relative humidities to reach a dynamic equilibrium between the compound and the water vapor. The percentage weight gain of the compound due to moisture absorption was calculated after the equilibrium.

[2] = Solubility experiments in different media, crystal forms of salts; type: physicochemical; set-up: thermodynamic solubility FaSSIF / thermodynamic solubility FaSSGF / thermodynamic solubility FeSSIF: unit not given here; settings: about 2 mg suspended for 24 hours, 37°C, HPLC, external standard method
Excerpt: 4.1 Experimental objective: The solubility of the crystal form A of phosphate, crystal form A of hydrochloride, crystal form A of sulphate, crystal form A of citrate, crystal form A of oxalate, crystal form A of maleate and crystal form A of salicylate in media such as artificial simulated gastric fluid (FaSSGF), fasted-state artificial simulated intestinal fluid (FaSSIF), and fed-state artificial simulated intestinal fluid (FeSSIF) was compared to provide a basis for the evaluation of the potential of the crystal forms of salts being manufactured as a drug. […]

[3] = Solid stability experiment of crystal form A of phosphate (5, 10, 20 and 30 days); type: physicochemical; settings: 60°C (GW, sealed), 50°C/75% RH (JS, unsealed), room temperature/92.5% RH (GS, unsealed)
Description: • 5.1 Experimental objective: To investigate and compare the stability of the crystal form A of phosphate under the three conditions of a high temperature of 60°C (GW, sealed), 50°C/75% RH (JS, unsealed), and room temperature/92.5% RH (GS, unsealed) and provide a basis for the screening of the crystal forms of salts and the storage of the salts of the compound. • 5.2 Experimental scheme: About 2 mg of crystal form A of phosphate was weighed into 2 mL dry and clean glass vials, respectively. The vials were respectively placed under the conditions of 60°C (GW, sealed), 50°C/75% RH (JS, unsealed), and room temperature/92.5% RH (GS, unsealed) for 5, 10, 20 and 30 days. […] Therefore, the crystal form can well meet the requirements of subsequent long-term storage and formulation processes.

[4] = Solubility experiments in different media, crystal form A of free base; type: physicochemical; settings: thermodynamic from solid
Description: 4.1 Experimental objective: The solubility of the crystal form A of free base in media such as pH1 buffer, artificial simulated gastric fluid (FaSSGF), fasted-state artificial simulated intestinal fluid (FaSSIF), and fed-state artificial simulated intestinal fluid (FeSSIF) was tested to provide a basis for the evaluation of the potential of the crystal form being manufactured as a drug.
4.2 Experimental scheme: About 1.0 mg of crystal form A of free base was weighed into 2 mL glass vials, and pH1 buffer solution, fasted-state artificial simulated intestinal fluid (FaSSIF), fed-state artificial simulated intestinal fluid (FeSSIF), and fasted-state simulated gastric fluid (FaSSGF) (1 mL for each medium) were added to each vial, respectively. The vials were placed on a micromixer for shaking overnight with the temperature set at 37°C. After 24 h, the sample solutions were filtered through 0.45 µm nylon filter membranes, and the filtrates were collected. The concentrations were determined by an external standard method and HPLC.

[5] = Stability experiment of solid crystal form A of free base; type: physicochemical; settings: 60°C; room temperature, 92.5% RH; 50°C, RH = 75%; 5, 10, 20 and 30 days
Description: 2.1 Experimental objective: To investigate the physical and chemical stability for crystal form A of free base under the conditions of a high temperature of 60°C, room temperature and a high humidity of 92.5% RH and 50°C, RH = 75% for 5, 10, 20 and 30 days and provide a basis for the storage of the compound.
2.2 Experimental scheme: About 2 mg of crystal form A of free base was taken and investigated under the conditions of 60°C in an oven, room temperature and a high humidity of RH = 92.5%, and 50°C, RH = 75% for 5, 10, 20 and 30 days. The content was determined by HPLC and an external standard method, and the changes of related substances were calculated by a chromatographic peak area normalization method (see 1.2.3 for the chromatographic conditions).

[6] = test system: Ba/F3 EGFR Del19/C797S; test: Cell proliferation inhibition experiment (Cell Titer-Glo); type: cell-based; settings: Mus musculus, 72 hours, read-out: Ba/F3 EGFR Dell9/C797S IC50
Description: (§1) Experimental objective: The objective of this test example is to test the inhibitory activity of compounds on the proliferation of different EGFR C797S drug-resistant mutant cell lines Ba/F3 EGFR Del19/T790M/C797S, Ba/F3 EGFR L858R/T790M/C797S, and Ba/F3 EGFR Del19/C797S. Experimental instruments: Centrifuge (Eppendorf 5810R); Microplate reader (BioTek Synergy H1) Pipette (Eppendorf or Rainin); Carbon dioxide incubator (Thermo 311) Cell counter (Life Countess II) Experimental reagents and consumables: • Ba/F3 EGFR Del19/T790M/C797S cells were purchased from KYinno Biotechnology Co., Ltd.; • Ba/F3 EGFR Del19/C797S cells were purchased from CoBioer Biosciences Co., Ltd.; • Ba/F3 EGFR L858R/T790M/C797S cells were purchased from CoBioer Biosciences Co., Ltd.; • Cell Titer-Glo was purchased from Promega, with a catalogue number of G7573; • RPMI 1640 was purchased from Gibco, with a catalogue number of 22400089; • FBS was purchased from Gibco, with a catalogue number of 10091148; • cell culture plates were purchased from Corning, with a catalogue number of 3610. Experimental methods: The inhibitory activity of the compound on the proliferation of different EGFR C797S drug-resistant mutant cell lines was detected using the Cell Titer-Glo method. The different cell lines were cultured in RPMI 1640 complete culture medium containing 10% FBS under conditions of 37°C and 5% CO2, the cells were collected by centrifugation when growing to a certain density, and adjusted to appropriate cell density after counting, the cells were spread on a white 96-well plate at 90 µL/well, and cultured in a 37°C, 5% CO2 incubator overnight, prepared compound solutions at different concentrations were added at 10 µL/well, corresponding solvent controls were set, and all wells were cultured in a 37°C, 5% CO2 incubator for 72 hours, 50 µL of CellTiter-Glo solution was added to each well, shook and mixed evenly, and incubated in the dark for 10 minutes, and a BioTek Synergy H1 microplate reader was used for reading. Experimental data processing method: The luminescence signal value was used to calculate the inhibition rate. Graphpad Prism software was used to fit the concentration and inhibition rate to a nonlinear regression curve, so as to obtain the IC50 value, as shown in the Table below for details.

[7] = test system: Ba/F3 EGFR L858R/T790M/C797S; test: as above; type: cell-based; settings: Mus musculus, 72 hours, read-out: Ba/F3 EGFR L858R_T790M_C797S IC50
Description: as §1

[8] = test system: Ba/F3 EGFR Del19/T790M/C797S; test: as above; type: cell-based; settings: Mus musculus, 72 hours, read-out: Ba/F3 EGFR Del19_T790M_C797S IC50
Description: as §1

[9] = Rat pharmacokinetic evaluation test; type: in vivo; settings: male, po, SD rats, plasma, p.o. 5 mg/kg
Description: 1. Study objective: SD rats were used as test animals to study the pharmacokinetic behaviour of the compounds of the present invention in rats (plasma) after oral administration at a dose of 5 mg/kg. 2. Experimental scheme: 2.1 Experimental drugs: The example compounds of the present invention, made in house. 2.2 Experimental animals: 3 SD rats/group, male, from Shanghai Jiesijie Experimental Animal Co., Ltd., animal production license number (SCXK (Shanghai) 2013-0006 N0.311620400001794). 2.3 Preparation formulation: • Formulation of drug for oral administration: 20% solutol HS15 in 0.5% MC (methylcellulose) • 20 g of a Solutol HS15 solid and 0.5 g of a MC solid powder were weighed and dissolved in 80 mL of purified water, and the mixture was vortexed, mixed until uniform, and subjected to ultrasound treatment to obtain a clear solution of 20% solutol HS15 in 0.5% MC. The example compound was weighed into a 20 mL glass vial, the solution was added thereto and the mixture was subjected to ultrasound treatment for 10 minutes to obtain a clear solution at a concentration of 0.5 mg/mL. 2.4 Administration: 3 male SD rats were administered p.o. respectively after the rats were fasted overnight; and the p.o. dose was 5 mg/kg and the administration volume was 10 mL/kg. 2.5 Sample collection: Blood collection: Before and after administration to rats, 0.2 mL of blood was collected from the jugular vein at 0.25, 0.5, 1, 2, 4, 6, 8 and 24 h, and placed in an EDTA-K2 anticoagulation tube, which was centrifuged at 6000 rpm at 4°C for 6 min to separate plasma which was stored at -80°C; and the animals were fed 4 h after administration. 2.6 Sample treatment: • 1) Acetonitrile (160 µL) was added to plasma sample (40 µL) for precipitation, and the mixture was centrifuged at 3500 × g for 5-20 min. • 2) The treated supernatant solution was taken and subjected to LC/MS/MS to analyse the concentrations of the test compound. LC/MS/MS analysis instrument: AB Sciex API 4000 Qtrap. 2.7 Liquid phase analysis: • Liquid phase conditions: Shimadzu LC-20AD pump • Chromatographic column: Agilent ZORBAX XDB-C18 (50 × 2.1 mm, 3.5 µm), mobile phase: solution A: 0.1% formic acid in water, solution B: acetonitrile • Flow rate: 0.4 mL/min • Elution time: 0-4.0 min, with eluents as follows:
3. Experimental results and analysis: The main pharmacokinetic parameters were calculated using WinNonlin 6.1.

weight gain after moisture absorption [1]	hygroscopicity [1]	crystal form transformation (XRPD pattern) [1]	thermodynamic solubility FaSSGF ([2]; FaSSGF (artificial simulated gastric fluid))	thermodynamic solubility FaSSIF ([2]; FaSSIF (fasted-state artificial simulated intestinal fluid))	solubility thermodynamic at 24 h ([2]; thermodynamic from solid, FeSSIF (fed-state artificial simulated intestinal fluid))	stability (impurity increase) [3]	solubility at 24 h ([4]; fassgf or other biorelevant, FaSSGF (simulated gastric fluid, fasted), 37°C)	solubility at 24 h ([4]; pH1 buffer, simulated gastric fluid, pH 1, 37°C)	solubility at 24 h ([4]; FaSSIF (simulated intestinal fluid, fasted), 37°C)	solubility at 24 h ([4]; FeSSIF (simulated intestinal fluid, fed), 37°C)	stability [5]	pIC50 [6]	pIC50 [7]	pIC50 [8]	AUC(0-t) [9]	Cmax [9]	half-life [9]	SMILES
0.533%	weak hygroscopicity	no crystal form transformation occurred	0.010	0.203	1200 µg/mL	relatively stable	–	–	–	–	–	–	–	–	–	–	–	CC(C)c1c(F)cc(N2C[C@H](N(C)S(C)(=O)=O)[C@H]2C)c2cnc(Nc3ccnc(-c4cn(C)nc4Cl)n3)cc12 [crystal form A of phosphate, N-((2R,3S)-1-(3-((2-(3-chloro-1-methyl-1H-pyrazol-4-yl)pyrimidin-4-yl)amino)-6-fluoro-5-isopropylisoquinolin-8-yl)-2-methylazetidin-3-yl)-N-methylmethanesulphonamide]
about 0.1719%	weak hygroscopicity	no crystal form transformation occurred	–	–	–	–	8 µg/mL (≈ 14 µM)	558 µg/mL (≈ 974 µM)	10 µg/mL (≈ 17.4 µM)	209 µg/mL (≈ 365 µM)	excellent stability	–	–	–	–	–	–	CC(C)c1c(F)cc(N2C[C@H](N(C)S(C)(=O)=O)[C@H]2C)c2cnc(Nc3ccnc(-c4cn(C)nc4Cl)n3)cc12 [crystal form A of free base, N-((2R,3S)-1-(3-((2-(3-chloro-1-methyl-1H-pyrazol-4-yl)pyrimidin-4-yl)amino)-6-fluoro-5-isopropylisoquinolin-8-yl)-2-methylazetidin-3-yl)-N-methylmethanesulphonamide]
–	–	–	–	–	–	–	–	–	–	–	–	8.21	7.82	8.35	1770 ng·h/mL	142 ng/mL	3.9 h	CC(C)c1c(F)cc(N2C[C@H](N(C)S(C)(=O)=O)[C@H]2C)c2cnc(Nc3ccnc(-c4cn(C)nc4Cl)n3)cc12 [Example 2, N-((2R,3S)-1-(3-((2-(3-chloro-1-methyl-1H-pyrazol-4-yl)pyrimidin-4-yl)amino)-6-fluoro-5-isopropylisoquinolin-8-yl)-2-methylazetidin-3-yl)-N-methylmethanesulphonamide]

Reference: EP4778921A1, “SALT FORM AND CRYSTAL FORM OF NITROGEN-CONTAINING HETEROCYCLIC DERIVATIVE INHIBITOR, AND PREPARATION METHOD THEREFOR AND USE THEREOF” (Shanghai Hansoh Biomedical Co., Ltd., priority 2023, dated 2025)
